Measured values as given in the NIST ThermoML archive (doi:10.1016/j.jct.2008.11.012).

Experiments:
[1] = xn = mol fraction of the nth substance listed; conditions: 101 kPa, Liquid, x2 = 0; for viscosity: Concentric cylinders viscometry; for mass density: Vibrating tube method
[2] = 101 kPa, Liquid; for viscosity: Concentric cylinders viscometry; for mass density: Vibrating tube method

O [water] + NCCNCCN
[1]
Conditions	mass density [kg/m3]	viscosity [mPa·s]
293.15 K	999.2	1.006
303.15 K	996.5	0.7988
313.15 K	993	0.6546
323.15 K	988.7	0.5427
333.15 K	983.7	0.4596
343.15 K	978.3	0.4271
353.15 K	972.3	0.3731
363.15 K	965.9	0.2983

NCCNCCN [di(2-aminoethyl)amine]
[2]
Conditions	mass density [kg/m3]	viscosity [mPa·s]
293.15 K	951	7.038
303.15 K	942.3	4.804
313.15 K	933.8	3.4
323.15 K	925.5	2.695
333.15 K	917	2.109
343.15 K	908.9	1.703
353.15 K	900.4	1.409
363.15 K	891.9	1.19

O [water]
[2]
Conditions	mass density [kg/m3]	viscosity [mPa·s]
293.15 K	999.2	1.006
303.15 K	996.5	0.7988
313.15 K	993	0.6546
323.15 K	988.7	0.5427
333.15 K	983.7	0.4596
343.15 K	978.3	0.4271
353.15 K	972.3	0.3731
363.15 K	965.9	0.2983
